Assay [1] relates to coneworm, Dioryctria spp. The conditions noted are these: systemic activity in pine; cited from earlier work.
A further assay deals with cerambycids. The experiment in a line: Single-tree protection study (Example 2): cerambycid attacks and larval feeding on standing loblolly pine. The assay is classed as in vivo. Conditions: for Cerambycid Feeding Area: bolts cut after tree mortality or at the end of the trial. The procedure:
Two 20-year-old, recently thinned loblolly pine plantations were selected on land owned by Temple-Inland Forest Products Corporation about 5 km south of Wells (Angelina County), Tex. Trees in one plantation were injected for use in a bolt study (Example 1). Trees in a 0.2 ha section of the second plantation were injected as part of a single-tree protection study (Example 2). A staging area also was set up in the second plantation where bolts from the first plantation were exposed to bark beetles and wood borers.
Loblolly pine, 15-20 cm DBH, were selected in the second plantation in March 2004. Each treatment (the same as those used in Example 1) was injected into four cardinal points about 0.3 m above the ground on each of 6 trees in April (16th-23rd) using the Arborjet Tree IV™ system. After 5 weeks post-injection (May 28), frills were cut with a hatchet into the sapwood between the injection points near the base of the tree. A cellulose sponge was inserted into each cut and loaded with 10 ml of a 4:1 mix of sodium N-methyldithiocarbamate (MS) (Woodfume®; Osmose, Inc., Buffalo, N.Y.) plus dimethyl sulfoxide (DMSO) (Aldrich Chemical) (Roton 1987, Strom et al. 2004). This method reduces resin to near zero in 1-2 weeks. The intent was to stress the tree and make it susceptible to attack by bark beetles without killing it. […]
Three weeks after pheromone deployment (June 28), each tree was evaluated by marking a 30 cm section of bole at a height of 3 m. All visible Ips attacks and cerambycid egg niches were counted within the marked area. The number of trees with fading crowns also was recorded. Thereafter, the trees were evaluated weekly for crown fading. When mortality did occur, the trees were felled and two bolts taken and evaluated for attack success and gallery length as described in Example 1. […] Treatment efficacy was determined by comparing tree survival, beetle attacks and egg gallery length on treated and untreated bolts. As before, data were transformed and analyzed by GLM and the Fisher's Protected LSD test using the Statview statistical program.

Here are results for 1 substance from patent US8633167B2, “Method for the protection of trees” (Syngenta Crop Protection LLC, priority 2006, dated 2014).

“4″-deoxy-4″-N-methylamino avermectin B1a/B1b [Emamectin]”: the efficacy against coneworm result in assay [1] is “highly effective”. In addition, the “Cerambycid Feeding Area” value with cerambycids (bolt height 3 m) and in the assay with cerambycids (bolt height 8 m) was 0.0 a throughout. For the same substance, the “Mean # of Attacks/0.3 Bole Section at 3 m after 24 days, Cerambycid” value with cerambycids (standing loblolly pine, after 24 days) is reported as 0.8 a.
